Measurements published in ChEMBL document CHEMBL1201862, “PubChem BioAssay data set” (2004).
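Briefly, cells in 96-well plates were exposed to five compound concentrations for 48 h, and endpoints were estimated by linear interpolation. Here, GI50 denotes the concentration required for 50% inhibition of growth.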 Calls of active or inactive are those of the source. Cut-off read from the data, not from the text of the source: active = GI50 up to about 1.1 µM and inactive = higher.

Experiments:
Assay in all cases: NCI tumour cell line growth inhibition, 48 h
786-0 = test system: 786-0
A498 = test system: A498
A549 = test system: A549
ACHN = test system: ACHN
BT-549 = test system: BT-549
CAKI-1 = test system: CAKI-1
CCRF-CEM = test system: CCRF-CEM
COLO 205 = test system: COLO 205
DU-145 = test system: DU-145
EKVX = test system: EKVX
HCT-116 = test system: HCT-116
HCT-15 = test system: HCT-15
HL-60 = test system: HL-60
HOP-62 = test system: HOP-62
HOP-92 = test system: HOP-92
HT-29 = test system: HT-29
Hs-578T = test system: Hs-578T
IGROV-1 = test system: IGROV-1
K562 = test system: K562
KM12 = test system: KM12
LOX IMVI = test system: LOX IMVI
M14 = test system: M14
MCF7 = test system: MCF7
MDA-MB-231 = test system: MDA-MB-231
MDA-MB-435 = test system: MDA-MB-435
MDA-N = test system: MDA-N
MOLT-4 = test system: MOLT-4
Malme-3M = test system: Malme-3M
NCI-H226 = test system: NCI-H226
NCI-H460 = test system: NCI-H460
NCI-H522 = test system: NCI-H522
NCI/ADR-RES = test system: NCI/ADR-RES
OVCAR-3 = test system: OVCAR-3
OVCAR-4 = test system: OVCAR-4
OVCAR-5 = test system: OVCAR-5
OVCAR-8 = test system: OVCAR-8
PC-3 = test system: PC-3
RPMI-8226 = test system: RPMI-8226
RXF 393 = test system: RXF 393
SF-268 = test system: SF-268
SF-295 = test system: SF-295
SF-539 = test system: SF-539
SK-MEL-28 = test system: SK-MEL-28
SK-MEL-2 = test system: SK-MEL-2
SK-MEL-5 = test system: SK-MEL-5
SK-OV-3 = test system: SK-OV-3
SN12C = test system: SN12C
SNB-19 = test system: SNB-19
SNB-75 = test system: SNB-75
SR = test system: SR
SW-620 = test system: SW-620
T47D = test system: T47D
TK-10 = test system: TK-10
U-251 = test system: U-251
UACC-257 = test system: UACC-257
UACC-62 = test system: UACC-62
UO-31 = test system: UO-31
NCI-H23 = test system: NCI-H23

SMILES: CCC1=C(CC2NCCc3cc(OC)c(OC)cc32)CC2c3ccccc3CCN2C1 (stereo not given)
- GI50 (786-0): 14 µM (inactive)
- GI50 (A498): 13.2 µM (inactive)
- GI50 (A549): 26.4 µM (inactive)
- GI50 (ACHN): 31.5 µM (inactive)
- GI50 (BT-549): 49.4 µM (inactive)
- GI50 (CAKI-1): 22.4 µM (inactive)
- GI50 (CCRF-CEM): 10.4 µM (inactive)
- GI50 (COLO 205): 10.2 µM (inactive)
- GI50 (DU-145): 38.5 µM (inactive)
- GI50 (EKVX): 22.2 µM (inactive)
- GI50 (HCT-116): 8.55 µM (inactive)
- GI50 (HCT-15): 37.9 µM
- GI50 (HL-60): 9.06 µM (inactive)
- GI50 (HOP-62): 21.7 µM (inactive)
- GI50 (HOP-92): 12.8 µM (inactive)
- GI50 (HT-29): 5.56 µM (inactive)
- GI50 (Hs-578T): 15.4 µM (inactive)
- GI50 (IGROV-1): 21.2 µM (inactive)
- GI50 (K562): 10.1 µM (inactive)
- GI50 (KM12): 23.7 µM (inactive)
- GI50 (LOX IMVI): 13.5 µM (inactive)
- GI50 (M14): 14.3 µM (inactive)
- GI50 (MCF7): 18.7 µM (inactive)
- GI50 (MDA-MB-231): 16.8 µM (inactive)
- GI50 (MDA-MB-435): 13.1 µM (inactive)
- GI50 (MDA-N): 14 µM (inactive)
- GI50 (MOLT-4): 15.3 µM (inactive)
- GI50 (Malme-3M): 14.6 µM (inactive)
- GI50 (NCI-H226): 19 µM (inactive)
- GI50 (NCI-H460): 12.6 µM (inactive)
- GI50 (NCI-H522): 14.8 µM (inactive)
- GI50 (NCI/ADR-RES): 29.6 µM (inactive)
- GI50 (OVCAR-3): 33.4 µM (inactive)
- GI50 (OVCAR-4): 22.5 µM (inactive)
- GI50 (OVCAR-5): 12.4 µM (inactive)
- GI50 (OVCAR-8): 37.5 µM (inactive)
- GI50 (PC-3): 16.2 µM (inactive)
- GI50 (RPMI-8226): 13.8 µM (inactive)
- GI50 (RXF 393): 19.8 µM (inactive)
- GI50 (SF-268): 31.5 µM (inactive)
- GI50 (SF-295): 20.4 µM (inactive)
- GI50 (SF-539): 9.55 µM (inactive)
- GI50 (SK-MEL-28): 13.9 µM (inactive)
- GI50 (SK-MEL-2): 15.8 µM (inactive)
- GI50 (SK-MEL-5): 14.8 µM (inactive)
- GI50 (SK-OV-3): > 100 µM (inactive)
- GI50 (SN12C): 21.7 µM (inactive)
- GI50 (SNB-19): 36.9 µM (inactive)
- GI50 (SNB-75): 19.8 µM (inactive)
- GI50 (SR): 10.1 µM (inactive)
- GI50 (SW-620): 13.8 µM (inactive)
- GI50 (T47D): 20.7 µM (inactive)
- GI50 (TK-10): 26.7 µM (inactive)
- GI50 (U-251): 13.7 µM (inactive)
- GI50 (UACC-257): 18.1 µM (inactive)
- GI50 (UACC-62): 15.5 µM (inactive)
- GI50 (UO-31): 15 µM (inactive)

SMILES: Cc1cc(C)c(S(=O)(=O)N(CCCN)OCCCON(CCCN)S(=O)(=O)c2c(C)cc(C)cc2C)c(C)c1
- GI50 (786-0): 2.33 µM (inactive)
- GI50 (A498): 3.38 µM (inactive)
- GI50 (A549): 1.77 µM (inactive)
- GI50 (ACHN): 15.3 µM (inactive)
- GI50 (BT-549): 3.1 µM (inactive)
- GI50 (CAKI-1): 14.2 µM (inactive)
- GI50 (CCRF-CEM): 2.3 µM (inactive)
- GI50 (COLO 205): 1.78 µM (inactive)
- GI50 (DU-145): 1.71 µM (inactive)
- GI50 (EKVX): 5.92 µM (inactive)
- GI50 (HCT-116): 1.75 µM (inactive)
- GI50 (HCT-15): 18.2 µM
- GI50 (HL-60): 1.91 µM (inactive)
- GI50 (HOP-62): 1.91 µM (inactive)
- GI50 (HOP-92): 1.98 µM (inactive)
- GI50 (HT-29): 1.67 µM (inactive)
- GI50 (Hs-578T): 1.49 µM (inactive)
- GI50 (IGROV-1): 1.98 µM (inactive)
- GI50 (K562): 2.69 µM (inactive)
- GI50 (KM12): 1.9 µM (inactive)
- GI50 (LOX IMVI): 1.87 µM (inactive)
- GI50 (M14): 1.75 µM (inactive)
- GI50 (MCF7): 1.82 µM (inactive)
- GI50 (MDA-MB-231): 1.77 µM (inactive)
- GI50 (MDA-MB-435): 2.03 µM (inactive)
- GI50 (MDA-N): 1.78 µM (inactive)
- GI50 (MOLT-4): 2.03 µM (inactive)
- GI50 (Malme-3M): 0.879 µM (active)
- GI50 (NCI-H226): 2.2 µM (inactive)
- GI50 (NCI-H23): 2.18 µM (inactive)
- GI50 (NCI-H460): 1.67 µM (inactive)
- GI50 (NCI-H522): 1.47 µM (inactive)
- GI50 (NCI/ADR-RES): 18.9 µM (inactive)
- GI50 (OVCAR-3): 2.03 µM (inactive)
- GI50 (OVCAR-4): 2.29 µM (inactive)
- GI50 (OVCAR-5): 2.2 µM (inactive)
- GI50 (OVCAR-8): 3.68 µM (inactive)
- GI50 (PC-3): 1.82 µM (inactive)
- GI50 (RPMI-8226): 2.38 µM (inactive)
- GI50 (RXF 393): 4.6 µM (inactive)
- GI50 (SF-268): 1.42 µM (inactive)
- GI50 (SF-295): 7.66 µM (inactive)
- GI50 (SF-539): 2.17 µM (inactive)
- GI50 (SK-MEL-28): 1.91 µM (inactive)
- GI50 (SK-MEL-2): 1.79 µM (inactive)
- GI50 (SK-MEL-5): 4.55 µM (inactive)
- GI50 (SK-OV-3): 1.82 µM (inactive)
- GI50 (SN12C): 3.91 µM (inactive)
- GI50 (SNB-19): 1.75 µM (inactive)
- GI50 (SNB-75): 1.86 µM (inactive)
- GI50 (SR): 2.07 µM (inactive)
- GI50 (SW-620): 2.49 µM (inactive)
- GI50 (T47D): 1.61 µM (inactive)
- GI50 (TK-10): 4.5 µM (inactive)
- GI50 (U-251): 1.64 µM (inactive)
- GI50 (UACC-257): 1.82 µM (inactive)
- GI50 (UACC-62): 2.52 µM (inactive)
- GI50 (UO-31): 16.7 µM (inactive)
